Results on 15 compounds are retold here after patent publication US20240182487A1, “MACROCYCLES AND THEIR USE” (BLOSSOMHILL THERAPEUTICS, INC., priority 2020, published 2024).

Type in all cases: biochemical
Assay [1] concerns the target EGFR L858R mutant (Homo sapiens (Human), UniProt P00533, L858R). Briefly: HotSpot radiometric kinase assay, EGFR L858R. The conditions noted are these: radiometric filter-binding, 10 μM ATP.
Assay [2] deals with EGFR L858R/T790M/C797S mutant (Homo sapiens (Human), UniProt P00533, C797S/L858R/T790M). Briefly: HotSpot radiometric kinase assay, EGFR L858R/T790M/C797S. The conditions noted are these: radiometric filter-binding, 10 μM ATP; read-out: EGFR (L858R/T790M/C797S/)_IC50.
For assay [3], the target named is EGFR (Δ746-750) (Homo sapiens (Human), UniProt P00533, DEL746-750). Kind of assay: HotSpot radiometric kinase assay, EGFR Δ746-750. As to conditions: radiometric filter-binding, 10 μM ATP.
The target of assay [4] is EGFR WT (Homo sapiens (Human), UniProt P00533). Briefly: HotSpot radiometric kinase assay, EGFR WT. The conditions noted are these: radiometric filter-binding, 10 μM ATP. On the procedure: (§1) Biochemical Assays for Inhibition of Wild-Type and Mutant EGFRs
EGFR WT, sequence (P00533 25-1210): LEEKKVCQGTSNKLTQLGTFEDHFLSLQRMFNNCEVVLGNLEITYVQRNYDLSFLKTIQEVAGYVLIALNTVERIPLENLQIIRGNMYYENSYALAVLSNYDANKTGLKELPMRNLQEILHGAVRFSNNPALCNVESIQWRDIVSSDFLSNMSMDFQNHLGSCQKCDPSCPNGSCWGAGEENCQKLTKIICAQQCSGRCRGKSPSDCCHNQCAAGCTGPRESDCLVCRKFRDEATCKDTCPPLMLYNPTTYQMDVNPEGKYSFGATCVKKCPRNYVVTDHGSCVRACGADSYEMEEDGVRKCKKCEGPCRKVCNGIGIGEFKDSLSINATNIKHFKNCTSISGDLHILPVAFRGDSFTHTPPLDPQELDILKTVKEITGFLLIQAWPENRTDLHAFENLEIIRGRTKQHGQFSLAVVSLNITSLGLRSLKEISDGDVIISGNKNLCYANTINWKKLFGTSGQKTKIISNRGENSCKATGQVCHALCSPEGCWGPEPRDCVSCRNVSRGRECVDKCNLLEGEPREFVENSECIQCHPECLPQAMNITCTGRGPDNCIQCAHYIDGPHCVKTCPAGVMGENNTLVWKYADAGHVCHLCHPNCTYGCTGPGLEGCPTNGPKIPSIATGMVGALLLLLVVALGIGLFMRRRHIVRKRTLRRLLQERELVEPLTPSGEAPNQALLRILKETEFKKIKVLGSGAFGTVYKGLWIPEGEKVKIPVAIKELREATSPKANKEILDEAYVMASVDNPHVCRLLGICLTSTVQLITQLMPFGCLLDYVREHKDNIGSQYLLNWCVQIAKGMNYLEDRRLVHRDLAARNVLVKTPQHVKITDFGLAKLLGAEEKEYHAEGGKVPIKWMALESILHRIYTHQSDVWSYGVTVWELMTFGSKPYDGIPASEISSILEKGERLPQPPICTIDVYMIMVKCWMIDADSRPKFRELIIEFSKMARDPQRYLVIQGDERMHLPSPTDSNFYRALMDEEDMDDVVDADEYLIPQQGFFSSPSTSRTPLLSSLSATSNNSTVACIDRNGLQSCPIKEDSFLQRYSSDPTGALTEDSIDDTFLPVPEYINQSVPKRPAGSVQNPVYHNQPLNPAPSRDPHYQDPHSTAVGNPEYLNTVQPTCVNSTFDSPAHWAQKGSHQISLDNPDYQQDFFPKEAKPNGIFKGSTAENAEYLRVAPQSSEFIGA
(§2) The inhibitory activities against EGFR WT, EGFR Δ752-759 mutant, EGFR Δ746-750/T790M mutant, EGFR Δ746-750/C797S mutant, EGFR Δ746-750/T790M/C797S mutant. […] Briefly, specific kinase/substrate pairs along with required cofactors were prepared in reaction buffer; 20 mM Hepes pH 7.5, 10 mM MgCl2, 1 mM EGTA, 0.02% Brij35, 0.02 mg/ml BSA, 0.1 mM Na3VO4, 2 mM DTT, 1% DMSO. Compounds were delivered into the reaction, followed ˜20 minutes later by addition of a mixture of ATP (Sigma, St. Louis MO) and ^33P ATP (Perkin Elmer, Waltham MA) to a final concentration of 10 μM. Reactions were carried out at room temperature for 120 min, followed by spotting of the reactions onto P81 ion exchange filter paper (Whatman Inc., Piscataway, NJ). Unbound phosphate was removed by extensive washing of filters in 0.75% phosphoric acid. […] IC50 values and curve fits were obtained using Prism (GraphPad Software).

The target of assay [5] is EGFR Δ746-750/C797S mutant (Homo sapiens (Human), UniProt P00533, C797S/DEL746-750). Briefly: HotSpot radiometric kinase assay, EGFR Δ746-750/C797S. The conditions noted are these: radiometric filter-binding, 10 μM ATP. The procedure:
as §1, §2

In assay [6] the target is EGFR Δ746-750/T790M mutant (Homo sapiens (Human), UniProt P00533, DEL746-750/T790M). Briefly: HotSpot radiometric kinase assay, EGFR Δ746-750/T790M. The conditions noted are these: radiometric filter-binding, 10 μM ATP. The procedure:
as §1, §2

The target in assay [7] is EGFR Δ746-750/T790M/C797S mutant (Homo sapiens (Human), UniProt P00533, C797S/DEL746-750/T790M). Kind of assay: HotSpot radiometric kinase assay, EGFR Δ746-750/T790M/C797S. The conditions noted are these: radiometric filter-binding, 10 μM ATP. On the procedure: as §1, §2
The target of assay [8] is EGFR L858R/C797S mutant (Homo sapiens (Human), UniProt P00533, C797S/L858R). Briefly: HotSpot radiometric kinase assay, EGFR L858R/C797S. As to conditions: radiometric filter-binding, 10 μM ATP.
EGFR L858R/C797S mutant, sequence (P00533 25-1210 C797S/L858R): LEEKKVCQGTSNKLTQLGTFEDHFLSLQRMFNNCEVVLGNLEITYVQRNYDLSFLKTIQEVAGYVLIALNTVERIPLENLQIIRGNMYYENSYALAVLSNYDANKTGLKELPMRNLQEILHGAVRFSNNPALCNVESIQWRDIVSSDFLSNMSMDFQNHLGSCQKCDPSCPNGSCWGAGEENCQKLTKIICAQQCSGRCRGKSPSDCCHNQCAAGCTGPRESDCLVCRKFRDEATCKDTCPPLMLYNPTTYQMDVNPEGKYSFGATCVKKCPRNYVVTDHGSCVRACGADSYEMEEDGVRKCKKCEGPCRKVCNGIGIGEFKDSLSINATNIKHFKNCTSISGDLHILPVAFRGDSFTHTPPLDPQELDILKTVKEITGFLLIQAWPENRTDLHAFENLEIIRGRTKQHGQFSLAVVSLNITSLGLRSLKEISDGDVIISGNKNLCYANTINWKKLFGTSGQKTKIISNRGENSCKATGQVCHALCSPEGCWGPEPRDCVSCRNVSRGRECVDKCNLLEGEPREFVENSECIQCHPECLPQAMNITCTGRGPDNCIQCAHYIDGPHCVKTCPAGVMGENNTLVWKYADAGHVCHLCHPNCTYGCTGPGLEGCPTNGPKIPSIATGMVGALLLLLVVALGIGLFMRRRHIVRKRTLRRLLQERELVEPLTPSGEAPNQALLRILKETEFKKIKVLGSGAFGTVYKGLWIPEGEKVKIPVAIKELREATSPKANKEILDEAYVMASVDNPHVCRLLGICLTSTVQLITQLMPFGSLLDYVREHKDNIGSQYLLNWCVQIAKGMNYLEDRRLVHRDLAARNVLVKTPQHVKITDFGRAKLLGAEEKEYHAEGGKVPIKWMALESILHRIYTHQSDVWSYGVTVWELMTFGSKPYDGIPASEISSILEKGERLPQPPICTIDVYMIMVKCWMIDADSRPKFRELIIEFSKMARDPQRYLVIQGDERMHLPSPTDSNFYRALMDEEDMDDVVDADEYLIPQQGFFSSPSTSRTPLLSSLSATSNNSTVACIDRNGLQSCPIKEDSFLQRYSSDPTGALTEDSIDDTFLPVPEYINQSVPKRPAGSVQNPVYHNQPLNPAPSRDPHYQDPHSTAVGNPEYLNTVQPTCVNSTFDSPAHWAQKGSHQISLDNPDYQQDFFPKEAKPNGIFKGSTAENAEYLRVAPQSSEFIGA
Assay [9] concerns the target EGFR L858R/T790M mutant (Homo sapiens (Human), UniProt P00533, L858R/T790M). Briefly: HotSpot radiometric kinase assay, EGFR L858R/T790M. As to conditions: radiometric filter-binding, 10 μM ATP; read-out: EGFR (L858R/T790M)_IC50.

EGFR L858R/T790M mutant, sequence (P00533 25-1210 T790M/L858R): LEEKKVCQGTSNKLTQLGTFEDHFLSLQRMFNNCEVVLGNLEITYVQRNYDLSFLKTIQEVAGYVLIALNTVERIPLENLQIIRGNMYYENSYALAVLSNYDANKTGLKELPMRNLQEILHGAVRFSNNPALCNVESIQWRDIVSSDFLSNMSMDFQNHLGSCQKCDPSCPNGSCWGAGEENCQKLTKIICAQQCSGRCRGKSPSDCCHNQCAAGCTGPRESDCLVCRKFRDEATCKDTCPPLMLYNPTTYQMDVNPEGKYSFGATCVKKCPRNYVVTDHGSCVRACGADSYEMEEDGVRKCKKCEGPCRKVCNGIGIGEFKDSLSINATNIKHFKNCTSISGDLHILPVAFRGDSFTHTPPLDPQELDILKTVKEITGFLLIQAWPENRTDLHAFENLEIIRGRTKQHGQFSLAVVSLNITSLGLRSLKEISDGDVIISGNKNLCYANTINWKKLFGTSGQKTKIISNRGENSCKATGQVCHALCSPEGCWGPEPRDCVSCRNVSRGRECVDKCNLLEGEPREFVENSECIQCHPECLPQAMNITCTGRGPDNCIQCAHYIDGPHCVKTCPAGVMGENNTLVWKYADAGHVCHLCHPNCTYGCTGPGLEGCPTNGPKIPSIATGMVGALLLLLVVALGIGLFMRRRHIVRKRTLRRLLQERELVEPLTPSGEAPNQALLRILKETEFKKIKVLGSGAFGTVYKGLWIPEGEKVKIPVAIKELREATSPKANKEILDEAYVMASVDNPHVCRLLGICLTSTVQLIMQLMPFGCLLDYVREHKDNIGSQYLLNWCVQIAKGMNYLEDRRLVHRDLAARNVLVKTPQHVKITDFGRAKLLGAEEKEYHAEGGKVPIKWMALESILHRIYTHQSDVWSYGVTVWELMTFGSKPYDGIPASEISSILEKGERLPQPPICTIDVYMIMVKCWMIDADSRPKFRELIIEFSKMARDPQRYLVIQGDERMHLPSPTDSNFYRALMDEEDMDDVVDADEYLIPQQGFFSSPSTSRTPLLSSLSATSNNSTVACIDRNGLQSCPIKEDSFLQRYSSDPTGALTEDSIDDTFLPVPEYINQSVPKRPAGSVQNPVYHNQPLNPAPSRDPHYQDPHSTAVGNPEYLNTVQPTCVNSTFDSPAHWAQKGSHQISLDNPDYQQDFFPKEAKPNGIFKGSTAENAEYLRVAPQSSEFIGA
EGFR L858R mutant, sequence (P00533 25-1210 L858R): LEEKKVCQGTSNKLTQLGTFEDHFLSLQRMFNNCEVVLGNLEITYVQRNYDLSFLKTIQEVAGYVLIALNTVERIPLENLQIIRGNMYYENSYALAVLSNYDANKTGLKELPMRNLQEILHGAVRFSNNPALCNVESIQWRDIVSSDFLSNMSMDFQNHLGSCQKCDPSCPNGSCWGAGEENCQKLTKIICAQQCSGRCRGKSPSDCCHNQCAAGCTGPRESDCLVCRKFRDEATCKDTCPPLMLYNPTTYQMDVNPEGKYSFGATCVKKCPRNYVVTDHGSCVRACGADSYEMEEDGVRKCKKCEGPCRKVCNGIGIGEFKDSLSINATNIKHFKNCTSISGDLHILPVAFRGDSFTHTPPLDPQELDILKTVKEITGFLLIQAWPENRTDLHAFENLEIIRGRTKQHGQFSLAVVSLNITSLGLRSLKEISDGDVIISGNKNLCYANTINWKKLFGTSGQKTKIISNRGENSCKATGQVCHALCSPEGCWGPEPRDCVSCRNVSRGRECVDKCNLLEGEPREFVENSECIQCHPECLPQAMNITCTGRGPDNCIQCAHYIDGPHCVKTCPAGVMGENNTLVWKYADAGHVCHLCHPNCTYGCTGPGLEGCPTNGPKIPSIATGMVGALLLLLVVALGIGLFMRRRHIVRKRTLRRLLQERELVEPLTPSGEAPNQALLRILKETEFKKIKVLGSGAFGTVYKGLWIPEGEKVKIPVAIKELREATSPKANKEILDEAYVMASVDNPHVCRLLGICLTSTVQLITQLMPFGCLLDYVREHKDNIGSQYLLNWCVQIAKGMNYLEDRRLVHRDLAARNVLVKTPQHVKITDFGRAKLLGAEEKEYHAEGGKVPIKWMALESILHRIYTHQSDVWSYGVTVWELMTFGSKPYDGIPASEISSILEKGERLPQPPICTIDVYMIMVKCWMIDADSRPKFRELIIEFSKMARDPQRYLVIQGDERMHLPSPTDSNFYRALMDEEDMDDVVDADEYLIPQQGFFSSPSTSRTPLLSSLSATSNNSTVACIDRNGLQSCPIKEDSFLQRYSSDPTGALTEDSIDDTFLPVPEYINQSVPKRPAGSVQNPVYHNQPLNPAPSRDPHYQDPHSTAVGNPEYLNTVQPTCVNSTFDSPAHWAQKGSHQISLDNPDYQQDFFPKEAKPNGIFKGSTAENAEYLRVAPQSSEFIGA

As to `CN(C)CCNC(=O)c1ccc2c(c1)OCCOCc1c(cnn1C)-c1cc3c(n[nH]c3cn1)/C=C/2` [Cpd. 81, (11E)-N-[2-(dimethylamino)ethyl]-1-methyl-1,18,19,21-tetrahydro-8H-10,7,4-(ethan[1]yl[1,2]diylidene)pyrazolo[3,4-f][1,4,9,12,13]benzodioxatriazacyclooctadecine-15-carboxamide], the IC50 in assay [1] worked out at 0.0281 µM; in assay [2] it was 0.0141 µM; in assay [3], 0.0401 µM; in [4] it was 0.0946 µM.
Take `CN1CCOCCN(c2ccc(F)c(Cl)c2)c2cc3c(n[nH]c3cn2)/C=C/c2cn(C)nc2C1=O` [Cpd. 99, (17E)-6-(3-chloro-4-fluorophenyl)-12,15-dimethyl-2,7,8,11,12,15-hexahydro-6H-5,3-(azenometheno)dipyrazolo[3,4-f:3′,4′-j][1,4,14]oxadiazacyclohexadecin-13(10H)-one]: the IC50 in assay [3] is 0.0844 µM; in assay [5], 0.0113 µM; in [6] it was 8.53 µM; in assay [7] it was 3.38 µM.
In the same order, the values of `Cn1ncc2c1COCCOc1ccccc1/C=C/c1n[nH]c3cnc-2nc13` [Cpd. 16, (18E)-8-methyl-8,9,11,12-tetrahydro-2H-5,3-(azenometheno)dipyrazolo[3,4-f:4′,3′-j][1,4,9]benzodioxazacyclopentadecine] are 0.0329 µM, 0.0613 µM, 0.0384 µM and 0.0051 µM.
`Cn1ncc2c1OCCCOc1ccccc1/C=C/c1n[nH]c3ccc-2nc13` [Cpd. 2, (18E)-8-methyl-2,8,11,12-tetrahydro-10H-3,5-ethenodipyrazolo[3,4-f:4′,3′-j][1,5,9]benzodioxazacyclopentadecine]: the IC50 in assay [1] is 0.258 µM; in assay [8] it was 0.595 µM; in assay [9], 0.301 µM; in assay [2], 0.692 µM; in [3] it was 0.0491 µM; in assay [5], 0.0162 µM. Also, the IC50 amounted to 0.0229 µM in assay [6], 0.0293 µM in [7] and 0.554 µM in [4].
Regarding `Cc1ccc2c(n1)/C=C/c1n[nH]c3cnc(nc13)-c1cnn(C)c1C(C)OCCO2` (stereo not drawn) [Cpd. 65, (18E)-8,9,16-trimethyl-8,9,11,12-tetrahydro-2H-5,3-(azenometheno)dipyrazolo[3,4-f:4′,3′-j]pyrido[2,3-n][1,4,9]dioxazacyclopentadecine], the IC50 in [3] stood at 0.281 µM; in assay [5], 0.0341 µM; in assay [6] it was 0.0359 µM; in [7] it was 0.0039 µM.
With `CN(C)CCNC(=O)c1ccc2c(c1)/C=C/c1n[nH]c3cnc(cc13)-c1cnn(C)c1OCCCO2` [Cpd. 71], the IC50 in [1] is 0.0016 µM; in [2], 0.0037 µM; in assay [3], 0.0024 µM; in assay [4], 0.0039 µM.
For the compound `Cn1ncc2c1OCCCOc1ccccc1/C=C/c1n[nH]c3cnc-2cc13` [Cpd. 1, (11E)-1-methyl-19,20-dihydro-1H,8H,18H-10,7,4-(ethan[1]yl[1,2]diylidene)pyrazolo[3,4-f][1,5,9,12,13]benzodioxatriazacyclooctadecine], the IC50 in [1] stood at 0.0291 µM; in assay [8], 0.055 µM; in assay [9] it was 0.0041 µM; in assay [2], 0.015 µM; in assay [3], 0.0068 µM; in [5], 0.0048 µM. Also, the IC50 in [6] was 0.0021 µM; in assay [7] it was 0.00022 µM; in assay [4] it was 0.0464 µM.
For `Cn1ncc2c1OCCCOc1ccccc1/C=C/c1n[nH]c3ccc-2cc13` [Cpd. 3, (11E)-1-methyl-19,20-dihydro-1H,8H,18H-10,7,4-(ethan[1]yl[1,2]diylidene)pyrazolo[3,4-f][1,5,12,13]benzodioxadiazacyclooctadecine], the IC50 in assay [1] came to 0.374 µM; in assay [8], 1.07 µM; in [9] it was 0.138 µM; in assay [2], 0.279 µM; in assay [3] it was 0.079 µM; in assay [5], 0.0244 µM. In addition, the IC50 in assay [6] is 0.0132 µM; in [7], 0.0102 µM; in assay [4], 1.05 µM.
As for `Cn1ncc2c1COCCOc1ccccc1/C=C/c1n[nH]c3cnc-2cc13` [Cpd. 63, (11E)-1-methyl-1,18,19,21-tetrahydro-8H-10,7,4-(ethan[1]yl[1,2]diylidene)pyrazolo[3,4-f][1,4,9,12,13]benzodioxatriazacyclooctadecine], the IC50 was 0.0149 µM in assay [3], 0.0077 µM in [5], 0.0028 µM in [6] and 0.0002 µM in [7].
In [3], `CN1CCC(NC(=O)c2ccc3c(c2)OCCOCc2c(cnn2C)-c2cc4c(n[nH]c4cn2)/C=C/3)CC1` [Cpd. 85, (11E)-1-methyl-N-(1-methylpiperidin-4-yl)-1,18,19,21-tetrahydro-8H-10,7,4-(ethan[1]yl[1,2]diylidene)pyrazolo[3,4-f][1,4,9,12,13]benzodioxatriazacyclooctadecine-15-carboxamide] yielded an IC50 of 0.07 µM.
The same measure, in the same setting: then `CN(C)CCNC(=O)c1ccc2c(c1)/C=C/c1n[nH]c3cnc(cc13)-c1cnn(C)c1COCCO2` [Cpd. 90, (11E)-N-[2-(dimethylamino)ethyl]-1-methyl-1,18,19,21-tetrahydro-8H-10,7,4-(ethan[1]yl[1,2]diylidene)pyrazolo[3,4-f][1,4,9,12,13]benzodioxatriazacyclooctadecine-14-carboxamide], with 0.0168 µM; and `CN1CCC(CNC(=O)c2ccc3c(c2)/C=C/c2n[nH]c4cnc(cc24)-c2cnn(C)c2COCCO3)CC1` [Cpd. 94, (11E)-1-methyl-N-[(1-methylpiperidin-4-yl)methyl]-1,18,19,21-tetrahydro-8H-10,7,4-(ethan[1]yl[1,2]diylidene)pyrazolo[3,4-f][1,4,9,12,13]benzodioxatriazacyclooctadecine-14-carboxamide], with 0.0176 µM.
As for `CCc1nn(C)c2c1/C=C/c1n[nH]c3cnc(cc13)-c1cc(F)ccc1OCCN(C)C2=O` [Cpd. 62, (18E)-17-ethyl-7-fluoro-13,15-dimethyl-2,12,13,15-tetrahydro-5,3-(azenometheno)dipyrazolo[3,4-f:3′,4′-j][1,4]benzoxazacyclopentadecin-14(11H)-one], the IC50 in [3] amounted to 0.0455 µM; in assay [5] it was 0.0057 µM; in [6] it was 0.0041 µM; in assay [7], 0.0005 µM.
Compound `Cn1ncc2c1COCCOc1ccc(C(=O)O)cc1/C=C/c1n[nH]c3cnc-2cc13` [Cpd. 92, (11E)-1-methyl-1,18,19,21-tetrahydro-8H-10,7,4-(ethan[1]yl[1,2]diylidene)pyrazolo[3,4-f][1,4,9,12,13]benzodioxatriazacyclooctadecine-14-carboxylic acid] registered an IC50 in [3] of 0.0471 µM.
Same read-out and setting: the result for `Cc1ccc2c(n1)/C=C/c1n[nH]c3cnc(cc13)-c1cnn(C)c1C(C)OCCO2` (stereo not drawn) [Cpd. 95, (18E)-8,9,16-trimethyl-8,9,11,12-tetrahydro-2H-5,3-(azenometheno)dipyrazolo[3′,4′:9,10;4″,3″:13,14][1,4]dioxacyclopentadecino[6,5-b]pyridine] reads 0.139 µM.
